This is an account of results in patent publication US20260263638A1, “COMPOSITIONS AND METHODS TO IMPROVE RNA PROPERTIES USING BASE, PHOSPHODIESTER LINKAGE, SUGAR BACKBONE, AND CAP MODIFICATIONS” (The Broad Institute, Inc., priority 2023, published 2026).

The Kd is a measure of binding affinity in units of concentration.

Strand notation (5' to 3'): a small letter for the sugar, then the base; units joined by * are phosphorothioate-linked, units joined directly phosphodiester-linked; [ ] holds rarer units or linkages, { } end groups; capitals alone tell only the bases. {m7G-cap} = 7-methylguanosine cap added chemically (m7GDP-imidazolide) to the 5'-phosphate; e = 2'-O-(2-methoxyethyl) (MOE); [I] = hypoxanthine (inosine); d = 2'-deoxy (DNA); m = 2'-O-methyl; r = 2'-OH (RNA); {P} = phosphate; f = 2'-fluoro

In the first data set the test system is HeLa cells. The data set is described as follows: Time-course dual luciferase assay of modified Firefly luciferase mRNA (Renilla control). It is filed as cell-based. The note with it: HeLa cells; 8-, 24-, 48-hours post-transfection; benchmark m7G-rG. How it is done:
The modularity of this workflow enabled divergent construction and evaluation of mRNAs featuring four different types of cap and 5′ UTR modifications (FIG. 8A): (1) base identities within the 5′ UTR, including as locations beyond the third base (+3 position), (2) phosphodiester linkages within the 5′ UTR, (3) sugar backbone modifications within the 5′ UTR, and (4) cap modifications. The effects of all of these different types of modifications on protein translation were assayed using Firefly luciferase reporter at 8-, 24-, and 48-hours post-transfection.
HeLa cells [ATCC, CCL-2] were maintained in DMEM culture media [ThermoFisher Scientific, 119951] containing 10% FBS and 1% penicillin-streptomycin [ThermoFisher Scientific, 15070063] in a 37° C. incubator with 5% CO2 and passaged at a ratio of 1:10 every 3 days. On the day before mRNA transfection, HeLa cells were seeded at 90% confluence in individual wells on 24-well plates. The following day, 50 ng of Renilla luciferase (internal control) mRNA and 50 ng of modified Firefly luciferase mRNA were transfected using Lipofectamine MessengerMAX Transfection Reagent [ThermoFisher Scientific, LMRNA003] per manufacturer's protocols. Additional controls that contain only Renilla luciferase mRNA or lipofection reagent only were included. Three individual transfections were conducted for each condition. 6 hours after transfection, the transfection media was removed, and cells were trypsinized and reseeded to three white clear-bottom 96-well plates [Corning, 3610] in phenol-red-free media. At 8-, 24-, and 48-hours post-transfection, cell culture media was removed and cells were rinsed with DPBS. Cells were lysed and luciferase activity was measured using the Promega Dual Glo Luciferase Assay System [Promega, E2920]. Firefly luminescence/Renilla luminescence for each well was used as mRNA activity readout. In cases where Nluc and Fluc were used, the protocol was conducted similarly using the Nano-Glo Dual-Luciferase Reporter Assay System [Promega, N1610].
In the case of “construct 21: LNAm7G cap; /5Phos/rArGrArGrArArUrArArArArA (SEQ ID NO: 22) ({P}-rArGrArGrArArUrArArArArA; LNA-modified m7G cap on the 5'-phosphate)”, the “Protein expression (Firefly luciferase luminescence normalized to Renilla, then to m7G-rG), fold increase” value worked out at 4.5 fold.

On to “construct 24: LNAm7G cap; /5Phos/mAmGmAmGmAmArUrArArArArA (SEQ ID NO: 25) ({P}-mAmGmAmGmAmArUrArArArArA; LNA-modified m7G cap on the 5'-phosphate)”, for which the “Protein expression (Firefly luciferase luminescence normalized to Renilla, then to m7G-rG), fold increase” value came out at 7.5 fold.

With “construct 16: m7G cap; /5Phos//i2MOErA//i2MOErG//i2MOErA//i2MOErG//i2MOErA//i2MOErA/rUrArArArArA (SEQ ID NO: 17) ({P}-eAeGeAeGeAeArUrArArArArA; m7G cap on the 5'-phosphate)”, the “Protein expression (Firefly luciferase luminescence normalized to Renilla, then to m7G-rG), fold increase” value was 5.4 fold.

With “construct 12: m7G cap; /5Phos//i2MOErA/rGrArGrArArUrArArArArA (SEQ ID NO: 13) ({m7G-cap}-eArGrArGrArArUrArArArArA)”, the “Protein expression (Firefly luciferase luminescence normalized to Renilla, then to m7G-rG), fold increase” value turned out to be 4.8 fold.

The same data set, now with this note: HeLa cells; Fluc reporter; result in words.
Turning to “construct 3: m7G cap; /5Phos/rCrGrArGrArArUrArArArArA (SEQ ID NO: 4) (CGAGAAUAAAAA; m7G cap, 5' phosphate; modified_base 1 OTHER; 5'-phosphate modified nucleotide)”, the “Effect of cap/5′ UTR modification on protein production / translation” value (shortened to “Effect … on protein production / translation”) is on record as “A>G~C~U”.

As to “construct 10: m7G cap; /5Phos/ArGrArGrArArUrArArArArA (SEQ ID NO: 11) ({m7G-cap}-dArGrArGrArArUrArArArArA)”, the “Effect … on protein production / translation” value is “negligible changes”.

On to “construct 19: ClBn7G cap; /5Phos/rArGrArGrArArUrArArArArA (SEQ ID NO: 20) (AGAGAAUAAAAA; ClBn7G cap, 5' phosphate; modified_base 1 OTHER; 5'-phosphate modified nucleotide)”, for which the “Effect … on protein production / translation” value is “did not outperform m7G”.

For “construct 1: m7G cap; /5Phos/rArGrArGrArArUrArArArArA (SEQ ID NO: 2) (AGAGAAUAAAAA; m7G cap, 5' phosphate; modified_base 1 OTHER; 5'-phosphate modified nucleotide)”, the “Effect … on protein production / translation” value is listed as “A>G~C~U”.

With “construct 20: ClBnOEt7G cap; /5Phos/rArGrArGrArArUrArArArArA (SEQ ID NO: 21) (AGAGAAUAAAAA; ClBnOEt7G cap, 5' phosphate; modified_base 1 OTHER; 5'-phosphate modified nucleotide)”, the “Effect … on protein production / translation” value is listed as “did not outperform m7G”.

As to “construct 4: m7G cap; /5Phos/rIrGrArGrArArUrArArArArA (SEQ ID NO: 5) ({P}-r[I]rGrArGrArArUrArArArArA; m7G cap on the 5'-phosphate)”, the “Effect … on protein production / translation” value is on record as “enhanced protein production”.

As for “construct 18: Bn7G cap; /5Phos/rArGrArGrArArUrArArArArA (SEQ ID NO: 19) (AGAGAAUAAAAA; Bn7G cap, 5' phosphate; modified_base 1 OTHER; 5'-phosphate modified nucleotide)”, the “Effect … on protein production / translation” value is on record as “did not outperform m7G”.

With “construct 9: m7G cap; /5Phos//ibetaL-rA/rGrArGrArArUrArArArArA (SEQ ID NO: 10) (AGAGAAUAAAAA; m7G cap; 5' phosphate; beta-L-A; modified_base 1 OTHER; 5'-phosphate modified L-adenosine)”, the “Effect … on protein production / translation” value is “negligible changes”.

On to “construct 5: m7G cap; /5Phos//iN6Me-rA/rGrArGrArArUrArArArArA (SEQ ID NO: 6) (AGAGAAUAAAAA; m7G cap; 5' phosphate; N6-methyl-A; modified_base 1 OTHER; 5'-phosphate modified N6-methyladenosine)”, for which the “Effect … on protein production / translation” value is “enhanced protein production”.

For the substance “construct 2: m7G cap; /5Phos/rUrGrArGrArArUrArArArArA (SEQ ID NO: 3) (UGAGAAUAAAAA; m7G cap, 5' phosphate; modified_base 1 OTHER; 5'-phosphate modified nucleotide)”, the “Effect … on protein production / translation” value was “A>G~C~U”.

As for “construct 8: m7G cap; /5Phos//i2FA/rGrArGrArArUrArArArArA (SEQ ID NO: 9) ({P}-fArGrArGrArArUrArArArArA; m7G cap on the 5'-phosphate)”, the “Effect … on protein production / translation” value is recorded as “hindered translation”.

The same data set, now with this note: topological screening: OU handle position, branching point, branch length, PS.
As for “construct 26: m7G-capped azide oligo /5Phos/rArGrArGrArUrArA/3AzideN/ clicked to uncapped rArArA/i5OCTdU/rArArArArArA (SEQ ID NO: 33) (AAATAAAAAA; m7G-capped azide oligo clicked to internal octyne-dU; modified_base 4 OTHER; 5-Octadiynyl modified uracil; misc_feature 1..3 RNA; misc_feature 4 DNA; misc_feature 5..10 RNA)”, the “Translation of branched / dual-capped Fluc mRNA (bioluminometry), result in words” value was “effectively induce mRNA translation”.

For another data set, the target named is T1, eIF4E (Homo sapiens, UniProt P06730).
T1 construct: His; purchased Cayman Chemical Inc 25150
T1 sequence (P06730 whole entry): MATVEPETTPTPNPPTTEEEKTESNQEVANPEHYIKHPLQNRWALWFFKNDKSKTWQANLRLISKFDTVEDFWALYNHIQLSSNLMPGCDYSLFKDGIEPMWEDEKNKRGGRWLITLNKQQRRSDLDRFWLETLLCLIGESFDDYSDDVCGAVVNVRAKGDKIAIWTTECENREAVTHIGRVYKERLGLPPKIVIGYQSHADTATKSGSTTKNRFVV
The data set is described as follows: eIF4E electrophoretic mobility shift assay (EMSA). It is filed as binding. Particulars: AF647-labeled capped oligos, read-out: eIF4E dissociation constant (Kd). How it is done: eIF4E affinity to fluorophore-labeled capped RNA oligonucleotides was quantified through electrophoretic mobility shift assay (EMSA) (FIGS. 14D and 9A-9E).
Capped oligonucleotides were labeled on the 3′ end using AF647 labeled cytidine-5′-phosphate-3′-(6-aminohexyl) phosphate [Jena Bioscience, NU-1706-AF647] and T4 RNA ligase ligated AF647-labeled cytidine onto the capped oligos using manufacturer's protocols. Oligos were then incubated in the binding buffer (1 mM DTT, 50 mM KCl, 10 mM Tris-HCl (pH 7.6), Novex Hi-Density TBE Sample Buffer [Invitrogen, LC6678]) with varying eIF4E-His [Cayman Chemical Inc, 25150] concentrations prepared by sequential dilutions from the stock solution. The oligos and […] were incubated at 4° C. for 30 mins and characterized by EMSA with Novex TBE Gels, 4-20% [Invitrogen, EC6225BOX] at 4° C. AF647 labeled oligos were imaged with BioRad ChemiDoc MP Imaging System [12003154] and band intensities were quantified using ImageJ. For Kd calculation, the proportions of bound were plotted against eIF4E concentration using GraphPad Prism (Specific binding with Hill slope).
Regarding “construct 24: LNAm7G cap; /5Phos/mAmGmAmGmAmArUrArArArArA (SEQ ID NO: 25) ({P}-mAmGmAmGmAmArUrArArArArA; LNA-modified m7G cap on the 5'-phosphate)”, the Kd amounted to 1570 ± 116 nM.

In the case of “construct 28: m7G cap; OU handle only; /5Phos/rArGrArUrArArA/i5OCTdU/rArArArArArA (SEQ ID NO: 38) (AGATAAATAAAAAA; m7G cap; internal octyne-dU handle; modified_base 1 OTHER; 5'-phosphate modified nucleotide; modified_base 8 OTHER; 5-Octadiynyl modified uracil; misc_feature 1..7 RNA; misc_feature 8 DNA; misc_feature 9..14 RNA)”, the Kd was 2210 nM.

“construct 42: dual LNAm7G-capped; /5Phos/rArGrArGrArUrArA/3AzideN/ clicked to /5Phos/rArGrArUrArArA/i5OCTdU/rArArArArArA (SEQ ID NO: 120) (AGATAAATAAAAAA; dual LNA-m7G caps via click branch; modified_base 1 OTHER; 5'-phosphate modified nucleotide; modified_base 8 OTHER; 5-Octadiynyl modified uracil; misc_feature 1..7 RNA; misc_feature 8 DNA; misc_feature 9..14 RNA)”: the dissociation constant (Kd) is 1280 nM.

In a further data set the target is T2, human decapping enzyme 2 (hDcp2) (Homo sapiens, UniProt Q8IU60).
T2 construct: purchased Enzymax LLC 86
The experiment in a line: hDcp2 decapping assay. It is filed as biochemical. The note with it: 23-nt capped oligos; result in words. How it is done: Next, the influence of modifications on decapping activity was examined. To this end, 23-nucleotide (23-nt) oligonucleotides with various modification patterns were subjected to decapping reactions and analyzed at different time intervals (FIGS. 14E and 9I).
500 ng of capped oligos were incubated in 75 μL decapping reaction buffer (10 mM Tris-HCl (pH 7.5), 100 mM NaCl, 2 mM MgCl2, 1 mM DTT, 2 mM MnCl2, 1:25 SUPERaseIn (v/v)) with 300 ng of hDcp2 [Enzymax LLC, 86] at 37° C. At indicated time points, 5 μL of reaction mixture was aliquoted out into 10 μL of denaturing gel-loading buffer [NEB, B0363S, with urea added to a final concentration of 5 M] and cooled to −20° C. until all time points were collected. The fractions were analyzed by PAGE using Novex 15% TBE-Urea gel [Invitrogen, EC6885BOX] by running at 100 V for 2 hours and stained by 1×SYBR Gold [ThermoFisher Scientific, S11494], and visualized using BioRad ChemiDoc MP Imaging System [12003154]. Band intensities were quantified using ImageJ.
With “construct 43: m7G cap; /5Phos/mAmGmAmGmAmAmUmAmAmAmAmAmAmGmGmGmAmAmUmAmAmAmC (SEQ ID NO: 26) ({P}-mAmGmAmGmAmAmUmAmAmAmAmAmAmGmGmGmAmAmUmAmAmAmC; m7G cap on the 5'-phosphate)”, the “Susceptibility / resistance to hDcp2 decapping” value was “increased decapping resistance to a similar level as LNA modification”.
